Data from patent publication US8030354B2, “Substituted biphenyl GPR40 modulators” (Amgen Inc., priority 2007, dated 2011).

Target: GPR40 (Homo sapiens, UniProt O14842)
Assay: Cell-based aequorin assay (CHO cells stably expressing GPR40 and aequorin)
Set-up: expressed in transfected cells; host or cells: CHO cells stably transfected with GPR40 and aequorin
Settings: activation of human GPR40, CHO cells, 0.01% HSA
Method in brief: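 CHO cells stably co-expressing GPR40 and aequorin, loaded with coelenterazine (1 ug/mL, 2 h, room temperature) in H/HBSS with 20 mM Hepes and 0.01% fatty acid-free HSA. Serially diluted compounds added; luminescence recorded over 20 s. EC50 from dose-response of maximum relative light units.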

Sequence of GPR40 (O14842 whole entry): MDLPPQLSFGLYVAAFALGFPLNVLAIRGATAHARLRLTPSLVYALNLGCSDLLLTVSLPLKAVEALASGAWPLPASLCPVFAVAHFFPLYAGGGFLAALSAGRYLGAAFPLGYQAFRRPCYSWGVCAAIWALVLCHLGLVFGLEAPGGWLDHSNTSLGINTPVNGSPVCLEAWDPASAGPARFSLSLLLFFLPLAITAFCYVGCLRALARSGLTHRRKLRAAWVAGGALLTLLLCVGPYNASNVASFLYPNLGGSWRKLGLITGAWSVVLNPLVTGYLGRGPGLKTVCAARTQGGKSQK

Compound	EC50
CCCC(CC(=O)O)c1cccc(OCc2ccc(-c3cc(OC)ccc3F)c(/C=C/C3CC3)c2)c1 (single isomer, unassigned) [Example 67.9, (3R)-3-(3-(((2-((E)-2-Cyclopropylethenyl)-2′-fluoro-5′-(methyloxy)-1,1′-biphenyl-4-yl)methyl)oxy)phenyl)hexanoic acid or (3S)-3-(3-(((2-((E)-2-cyclopropylethenyl)-2′-fluoro-5′-(methyloxy)-1,1′-biphenyl-4-yl)methyl)oxy)phenyl)hexanoic acid]	1 to 10 µM
CCCC(CC(=O)O)c1cccc(OCc2ccc(-c3cc(OC)ccc3F)c(C3CCCC3)c2)c1 (single isomer, unassigned) [Example 67.10, (3R)-3-(3-(((2-Cyclopentyl-2′-fluoro-5′-(methyloxy)-1,1′-biphenyl-4-yl)methyl)oxy)p acid or (3S)-3-(3-(((2-cyclopentyl-2′-fluoro-5′-(methyloxy)-1,1′-biphenyl-4-yl)methyl)oxy)phenyl)hexanoic acid]	0.1 to 1 µM
CCCCOc1cc(COc2cccc(C(CCC)CC(=O)O)c2)ccc1-c1cccc(OC)c1 (single isomer, unassigned) [Example 67.13, (3R)-3-(3-(((2-(Butyloxy)-3′-(methyloxy)-1,1′-biphenyl-4-yl)methyl)oxy)phenyl)hexanoic acid or (3S)-3-(3-(((2-(butyloxy)-3′-(methyloxy)-1,1′-biphenyl-4-yl)methyl)oxy)phenyl)hexanoic acid]	0.1 to 1 µM
CCC[C@H](CC(=O)O)c1cccc(OCc2ccc(-c3cc(OC)ccc3F)c(OC3CCCCO3)c2)c1 (single isomer, unassigned) [Example 67.14, (3R)-3-(3-(((2′-Fluoro-5′-(methyloxy)-2-(tetrahydro-2H-pyran-2-yloxy)-1,1′-biphenyl-4-yl)methyl)oxy)phenyl)hexanoic acid or (3S)-3-(3-(((2′-fluoro-5′-(methyloxy)-2-(tetrahydro-2H-pyran-2-yloxy)-1,1′-biphenyl-4-yl)methyl)oxy)phenyl)hexanoic acid]	0.1 to 1 µM
CCCCCCOc1cc(COc2cccc([C@H](CCC)CC(=O)O)c2)ccc1-c1cc(OC)ccc1F (single isomer, unassigned) [Example 67.15, (3R)-3-(3-(((2′-Fluoro-2-(hexyloxy)-5′-(methyloxy)-1,1′-biphenyl-4-yl)methyl)oxy)phenyl)hexanoic acid or (3S)-3-(3-(((2′-fluoro-2-(hexyloxy)-5′-(methyloxy)-1,1′-biphenyl-4-yl)methyl)oxy)phenyl)hexanoic acid]	0.1 to 1 µM
CCCC(CC(=O)O)c1cccc(OCc2ccc(-c3cc(OC)ccc3F)c(OCCCC(C)C)c2)c1 (single isomer, unassigned) [Example 67.16, (3R)-3-(3-(((2′-Fluoro-5′-(methyloxy)-2-((4-methylpentyl)oxy)-1,1′-biphenyl-4-yl)methyl)oxy)phenyl)hexanoic acid or (3S)-3-(3-(((2′-fluoro-5′-(methyloxy)-2-((4-methylpentyl)oxy)-1,1′-biphenyl-4-yl)methyl)oxy)phenyl)hexanoic acid]	0.1 to 1 µM
CCCC(CC(=O)O)c1cccc(OCc2ccc(-c3cc(OC)ccc3F)c(OCC3CCCCC3)c2)c1 (single isomer, unassigned) [Example 67.17, (3R)-3-(3-(((2-((Cyclohexylmethyl)oxy)-2′-fluoro-5′-(methyloxy)-1,1′-biphenyl-4-yl)methyl)oxy)phenyl)hexanoic acid or (3S)-3-(3-(((2-((cyclohexylmethyl)oxy)-2′-fluoro-5′-(methyloxy)-1,1′-biphenyl-4-yl)methyl)oxy)phenyl)hexanoic acid]	0.1 to 1 µM
CCC[C@H](CC(=O)O)c1cccc(OCc2ccc(-c3ccccc3F)c(C(C)(C)C)c2)c1 (single isomer, unassigned) [Example 67.18, (3R)-3-(3-(((2-(1,1-Dimethylethyl)-2′-fluoro-1,1′-biphenyl-4-yl)methyl)oxy)phenyl)hexanoic acid or (3S)-3-(3-(((2-(1,1-dimethylethyl)-2′-fluoro-1,1′-biphenyl-4-yl)methyl)oxy)phenyl)hexanoic acid]	1 to 10 µM
CCC[C@H](CC(=O)O)c1cccc(OCc2ccc(-c3ccc(OC)nc3)c(C(C)(C)C)c2)c1 (single isomer, unassigned) [Example 67.19, (3R)-3-(3-(((3-(1,1-Dimethylethyl)-4-(6-(methyloxy)-3-pyridinyl)phenyl)methyl)oxy)phenyl)hexanoic acid or (3S)-3-(3-(((3-(1,1-dimethylethyl)-4-(6-(methyloxy)-3-pyridinyl)phenyl)methyl)oxy)phenyl)hexanoic acid]	1 to 10 µM
CCCC(CC(=O)O)c1cccc(OCc2ccc(-c3cccc(OC)n3)cc2)c1 (single isomer, unassigned) [Example 67.22, (3R)-3-(3-(((4-(6-(Methyloxy)-2-pyridinyl)phenyl)methyl)oxy)phenyl)hexanoic acid or (3S)-3-(3-(((4-(6-(methyloxy)-2-pyridinyl)phenyl)methyl)oxy)phenyl)hexanoic acid]	1 to 10 µM
CCC[C@H](CC(=O)O)c1cccc(OCc2ccc(-c3cc(OC)ccc3F)c(COCC)c2)c1 (single isomer, unassigned) [Example 67.23, (3R)-3-(3-(((2-((Ethyloxy)methyl)-2′-fluoro-5′-(methyloxy)-1,1′-biphenyl-4-yl)methyl)oxy)phenyl)hexanoic acid or (3S)-3-(3-(((2-((ethyloxy)methyl)-2′-fluoro-5′-(methyloxy)-1,1′-biphenyl-4-yl)methyl)oxy)phenyl)hexanoic acid]	1 to 10 µM
C=CC(C)(C)[C@H](O)c1cc(COc2cccc([C@H](CCC)CC(=O)O)c2)ccc1-c1cc(OC)ccc1F (single isomer, unassigned) [Example 67.25, (3R)-3-(3-(((2′-Fluoro-2-((1S)-1-hydroxy-2,2-dimethyl-3-butenyl)-5′-(methyloxy)-1,1′-biphenyl-4-yl)methyl)oxy)phenyl)hexanoic acid or (3R)-3-(3-(((2′-fluoro-2-((1R)-1-hydroxy-2,2-dimethyl-3-butenyl)-5′-(methyloxy)-1,1′-biphenyl-4-yl)methyl)oxy)phenyl)hexanoic acid]	1 to 10 µM

Second part, the molecule after the results:

EC50	Compound
1 to 10 µM	CCCC(CC(=O)O)c1cccc(OCc2ccc(-c3cc(OC)ccc3F)c(C(OC)C(C)(C)CC)c2)c1 (single isomer, unassigned) [Example 67.26]
1 to 10 µM	CCC[C@H](CC(=O)O)c1cccc(OCc2ccc(-c3cc(OC)ccc3F)c(COCC=C(C)C)c2)c1 (single isomer, unassigned) [Example 67.27, (3R)-3-(3-(((2′-Fluoro-2-(((3-methyl-2-butenyl)oxy)methyl)-5′-(methyloxy)-1,1′-biphenyl-4-yl)methyl)oxy)phenyl)hexanoic acid or (3S)-3-(3-(((2′-fluoro-2-(((3-methyl-2-butenyl)oxy)methyl)-5′-(methyloxy)-1,1′-biphenyl-4-yl)methyl)oxy)phenyl)hexanoic acid]
1 to 10 µM	CCCC(CC(=O)O)c1cccc(OCc2ccc(-c3cc(OC)ccc3F)c(CN3CCCC3)c2)c1 (single isomer, unassigned) [Example 67.28, (3R)-3-(3-(((2′-Fluoro-5′-(methyloxy)-2-(1-pyrrolidinylmethyl)-1,1′-biphenyl-4-yl)methyl)oxy)phenyl)hexanoic acid or (3S)-3-(3-(((2′-fluoro-5′-(methyloxy)-2-(1-pyrrolidinylmethyl)-1,1′-biphenyl-4-yl)methyl)oxy)phenyl)hexanoic acid]
0.1 to 1 µM	COc1ccc(F)c(-c2ccc(COc3cccc(C(CCC(F)(F)F)CC(=O)O)c3)cc2C(C)(C)C)c1 (single isomer, unassigned) [Example 68.1, (3R)-3-(3-(((2-(1,1-Dimethylethyl)-2′-fluoro-5′-(methyloxy)-1,1′-biphenyl-4-yl)methyl)oxy)phenyl)-6,6,6-trifluorohexanoic acid or (3S)-3-(3-(((2-(1,1-dimethylethyl)-2′-fluoro-5′-(methyloxy)-1,1′-biphenyl-4-yl)methyl)oxy)phenyl)-6,6,6-trifluorohexanoic acid]
1 to 10 µM	CCCCOc1cc(COc2cccc(C(CCC(F)(F)F)CC(=O)O)c2)ccc1-c1cc(OC)ccc1F (single isomer, unassigned) [Example 68.2, (3R)-3-(3-(((2-(Butyloxy)-2′-fluoro-5′-(methyloxy)-1,1′-biphenyl-4-yl)methyl)oxy)phenyl)-6,6,6-trifluorohexanoic acid or (3S)-3-(3-(((2-(butyloxy)-2′-fluoro-5′-(methyloxy)-1,1′-biphenyl-4-yl)methyl)oxy)phenyl)-6,6,6-trifluorohexanoic acid]
0.1 to 1 µM	CCCCOc1cc(COc2cccc(C(CC(=O)O)CC3CC3)c2)ccc1-c1cc(OC)ccc1F (single isomer, unassigned) [Example 69.5, (3R)-3-(3-(((2-(Butyloxy)-2′-fluoro-5′-(methyloxy)-1,1′-biphenyl-4-yl)methyl)oxy)phenyl)-4-cyclopropylbutanoic acid or (3S)-3-(3-(((2-(butyloxy)-2′-fluoro-5′-(methyloxy)-1,1′-biphenyl-4-yl)methyl)oxy)phenyl)-4-cyclopropylbutanoic acid]
0.1 to 1 µM	COc1ccc(F)c(-c2ccc(COc3cccc(C(CC(=O)O)CC4CC4)c3)cc2C2CCCC2(C)C)c1 (single isomer, unassigned) [Example 69.7]
0.1 to 1 µM	COc1cccc(-c2ccc(COc3cccc(C(CC(=O)O)CC4CC4)c3)cc2C2CCCC2(C)C)c1 (single isomer, unassigned) [Example 69.9]
1 to 10 µM	COc1ccc(F)c(-c2ccc(COc3cccc(C(CC(=O)O)CC4CC4)c3)cc2C(=O)C(C)(C)C)c1 (single isomer, unassigned) [Example 69.20, (3R)-4-Cyclopropyl-3-(3-(((2-(2,2-dimethylpropanoyl)-2′-fluoro-5′-(methyloxy)-1,1′-biphenyl-4-yl)methyl)oxy)phenyl)butanoic acid or (3S)-4-cyclopropyl-3-(3-(((2-(2,2-dimethylpropanoyl)-2′-fluoro-5′-(methyloxy)-1,1′-biphenyl-4-yl)methyl)oxy)phenyl)butanoic acid]
